Reference: patent US20060234390A1, “Process for determining target function and identifying drug leads” (priority 2002, published 2006)
Entries after “also recorded” stand apart in the source; their conditions may differ.

Tests used:
P38 MAP kinase [1] = biological target: T1, P38 MAP kinase (Homo sapiens, UniProt Q16539); settings: stated as a known property of the ligand; cited from earlier work
T1 construct: purchased Sigma

tubulin = test: HPLC based Chemical Array binding assay (protein-bound vs free compounds, UV and mass spectrum); settings: tubulin 0, 5 and 20 uM; 10 compound mixture, 0.5 uM each; GFF II column
Procedure: (§1) Drug-like chemical compounds representing a collection of drug-like chemical scaffolds (Sigma-Aldrich, ICN, Calbiochem) were weighed and mixed to a final concentration of 20 uM each in 50 mM ammonium acetate pH 7, 10% methanol. 1 uM to 20 uM tubulin or P38 MAP kinase (Sigma) were dispensed into HPLC low volume sample cuvettes (Waters) and mixed with 0.5 uM to 20 uM compounds. After mixing and a 15 minute 37° C. incubation, the cuvettes were placed on ice and injected into the HPLC (Waters 2690) using an autoinjector (Waters) onto a 150 mm×2.1 mm ID Pinkerton GFF II column (Regis Technologies) for dual size exclusion and phase separation with a 50 mM ammonium acetate, 10% methanol running buffer.
(§2) We optimized the column dimensions and the choice of resin to maximize the separation of the compounds bound to the protein targets from the unbound compounds. Resins which elute protein in the void volume and small column diameters and lengths which minimize the void volume were used. Such columns minimize the amount of dilution of the protein sample and minimize the time required for each assay, thereby minimizing the amount of bound compound that dissociates from the protein (as governed by the Koff rate). […] A number of HPLC columns, including the Regis 150 mm×2.1 mm GFF II column, a 1.0 mm×100 mm YMC Diol column, a 2.1 mm×150 mm Phenomonex Polyhydroxymethacrylate (Polysep) column, and a Jordi 2.1×150 mm Divinyl Benzene column, were tested. Similarly, other running buffers were tested in which the salt and methanol concentration were varied, and the ratio of protein target to small compounds in the binding reaction was varied from 1000:1 to 1:1000. Resins representative of different classes were tested for their ability to separate the protein fraction from the drug-like small molecule compounds, and to minimize the cycle time for all of the compounds to elute from the column. These characteristics of the columns are determined by surface properties and limitations on flow rates due to resins collapsing under backpressure. […] In applications where a longer cycle time (e.g., over 10 minutes per run) is acceptable, any of the above columns or a series of the above columns may be used.
(§3) For shorter cycle times, other columns may be used.

P38 MAP kinase [2] = biological target: T1, P38 MAP kinase; test: as above; settings: for identity of the compound extracted from the mixture and released from the protein (mass spectrum): 5 uM P38 MAP kinase + 5 uM mixture of Quinine and 86002
Procedure: as §1, §2, §3

[3] = P38 0, 2.5, 5 and 10 uM, 86002 and quinine 5 uM each, Diol column

T1 sequence (Q16539 whole entry): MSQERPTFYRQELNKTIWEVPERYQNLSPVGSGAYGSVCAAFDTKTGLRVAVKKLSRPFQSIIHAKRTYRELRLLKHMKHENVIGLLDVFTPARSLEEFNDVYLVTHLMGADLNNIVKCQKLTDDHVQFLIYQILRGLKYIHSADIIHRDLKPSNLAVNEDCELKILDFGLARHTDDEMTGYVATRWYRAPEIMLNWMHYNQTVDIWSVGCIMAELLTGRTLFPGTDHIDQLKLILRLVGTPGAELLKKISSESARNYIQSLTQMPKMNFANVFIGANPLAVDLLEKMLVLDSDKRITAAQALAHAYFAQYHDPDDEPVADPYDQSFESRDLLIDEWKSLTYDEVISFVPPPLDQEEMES

| Compound | affinity for the P38 MAP kinase protein target (P38 MAP kinase [1]) | reduction of the free compound UV peak with increasing tubulin (tubulin) | mass spectrum of the collected protein fraction compared with the standard (P38 MAP kinase [2]; 5 uM P38 MAP kinase + 5 uM 86002, Diol column) | identity of the compound extracted from the mixture and released from the protein (mass spectrum) (P38 MAP kinase [2]) | reduction of the free compound UV peak with increasing P38 MAP kinase (P38 MAP kinase [2]; [3]) | reduction of the free compound UV peak with increasing P38 MAP kinase (P38 MAP kinase [2]; P38 0, 3.5 and 5 uM, 10 compound mixture, 0.5 uM each, GFF II column) | level of the characteristic peak in the mass spectrum of the protein fraction (P38 MAP kinase [2]; P38 2 uM, 100 compound mixture, 20 uM each, GFF II column) | level of the characteristic peaks in the mass spectrum of the protein fraction (P38 MAP kinase [2]; P38, 10 compound mixture, 0.5 uM each, GFF II column) |
| --- | --- | --- | --- | --- | --- | --- | --- | --- |
| Fc1ccc(-c2nc3n(c2-c2ccncc2)CCS3)cc1 [SKB86002] | micromolar affinity | negligible reduction | corresponded to the 86002 standard | identified as 86002 | concentration dependant reduction | concentration dependent reduction | binds and extracts; also recorded: at a level far higher than other peaks | at a level far higher than other peaks |
| C=C[C@H]1CN2CC[C@H]1C[C@H]2[C@H](O)c1ccnc2ccc(OC)cc12.Cl [quinine, quinine monohydrochloride] | – | – | – | not quinine | negligible reduction | – | – | – |
